Each structure is given as a SMILES string. pIC50: −log10 of the molar value. Active and inactive are the calls of the source.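 Rule for the calls: active = inhibition of 30% or more at any tested concentration; inactive = the rest.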

One assay concerns the target M17 leucyl aminopeptidase (Plasmodium falciparum 3D7). Put plainly: PfM17LAP leucine aminopeptidase inhibitors, dose response, biochemical, QFRET (AID 588688). The conditions noted are these: recombinant PfM17LAP, H-Leu-NHMec fluorogenic substrate cleavage.
In the case of `O=C(CSc1nccc(=O)[nH]1)Nc1ccc(Oc2ccccc2)cc1`, the pIC50 is 4.63.

Take `CCn1c2ccccc2c2cc(NC(=O)CSc3nc(C)cc(=O)[nH]3)ccc21`: the pIC50 is 4.96.

In the case of `COC(=O)c1c(NC(=O)C2CC=CCC2C(=O)O)sc(C)c1-c1ccc(C)cc1` (configuration not stated), the pIC50 is 5.29.

Regarding `O=C(Cc1cccc2ccccc12)NO`, the pIC50 was 5.21.

Turning to `COc1ccc(OCCC(=O)NO)cc1`, the pIC50 was 4.18.

Take `COc1cc(NC(=O)CSc2ccccc2)c(C(=O)O)cc1OC`: the pIC50 was 4.59.

Take `COc1ccc(-c2nnc(NC(=O)C3CC(C)=C(C)CC3C(=O)O)s2)cc1` (configuration not stated): the pIC50 is 4.01.

As to `O=C(CSc1nccc(=O)[nH]1)Nc1ccc(N2CCOCC2)cc1`, the pIC50 was 4.76.

Turning to `O=C(CSc1nc(O)cc(=O)[nH]1)Nc1ccccc1`, the pIC50 was 3.99.

Regarding `Cc1cc(SCC(=O)Nc2ccccc2C(=O)O)nc2ccccc12`, the pIC50 is 4.77.

Take `Cc1ccc(NC(=O)CSc2nc(O)cc(=O)n2Cc2ccccc2)cc1`: the pIC50 is 4.47.

For the compound `CC1=C(C)CC(C(=O)Nc2nc(-c3cc(C)ccc3C)c(C)s2)C(C(=O)O)C1` (configuration not stated), the pIC50 was 4.23.

On to `O=C(Cc1ccc2ccccc2c1)NO`, for which the pIC50 was 6.10.

Consider `CC1=C(C)CC(C(=O)Nc2ccc(Oc3ccc(Cl)cc3)cc2)C(C(=O)O)C1` (configuration not stated), for which the pIC50 was 4.33.

Staying with this assay, now noted: recombinant PfM17LAP, H-Leu-NHMec fluorogenic substrate cleavage; at 100 µM (top of the series).
In the case of `CCC(C)(C)C1CCc2c(sc(NC(=O)C3CC(C)=C(C)CC3C(=O)O)c2C(=O)OC)C1` (configuration not stated), the inhibition entry was “inactive”.

Consider `COC(=O)c1ccccc1NC(=O)c1cc2cc3ccc(C)cc3nc2s1`, for which the inhibition result was “inactive”.

As to `COC(=O)c1c(NC(=O)c2ccccc2C(=O)O)sc2c1CCCC2`, the inhibition result was “inactive”.

Turning to `NC(N)=NCCC[C@H](N)C(=O)NO`, the inhibition entry is “inactive”.

For `COc1cc(NC(=O)c2ccc(-c3ccccc3)cc2)c(C(=O)O)cc1OC`, the inhibition entry is “inactive”.

Consider `N[C@@H](Cc1c[nH]c2ccccc12)C(=O)NO`, for which the inhibition result is “inactive”.

As for `O=C(CSc1ccccc1)Nc1cccc2c1C(=O)NC2=O`, the inhibition entry was “inactive”.

Take `O=C(Nc1ccc(Cl)cc1)Nc1ccccc1C(=O)O`: the inhibition result is “inactive”.

In the case of `O=C(O)c1ccccc1C(=O)Nc1nc2c(s1)CCCC2`, the inhibition entry was “inactive”.

Take `CC(C)C[C@H](N)C(=O)NO`: the inhibition entry was “inactive”.

Turning to `CC1CCc2sc(C(=O)Nc3cccc4c3C(=O)NC4)cc2C1` (configuration not stated), the inhibition result was “inactive”.

On to `COC(=O)c1cc(OC)c(OC)cc1NC(=O)c1sc2nc(C)ccc2c1N`, for which the inhibition entry was “inactive”.

On to `COC(=O)c1ccccc1NC(=O)c1ccc2c(Cl)c3c(nc2c1)CCC3`, for which the inhibition entry was “inactive”.

The record behind these values is PubChem BioAssay AID588688 (Southern Research Specialized Biocontainment Screening …, 2011).
